Here are results for one compound from article PMC5447088, “The Hybrid Strategy of Thermoactinospora rubra YIM 77501^T for Utilizing Cellulose as a Carbon Source at Different Temperatures” (Frontiers in Microbiology, 2017).

Each structure is given as a SMILES string.

Test in all cases: p-nitrophenol release, absorbance at […] nm
Assay type in all cases: biochemical, Thermoactinospora rubra

In one test the test system is TrBG2. The note with it: optimal temperature 60 °C; optimal pH; pNPGlu assumed as the substrate of Table S5.
The next test relates to TrBG3. Particulars: optimal temperature 50 °C; optimal pH; pNPGlu assumed as the substrate of Table S5.
In the next test the test system is TrBG1. The note with it: optimal temperature 40 °C; optimal pH; pNPGlu assumed as the substrate of Table S5.
The next test concerns TrBG5. Particulars: optimal temperature 50-60 °C; optimal pH; pNPGlu assumed as the substrate of Table S5.

The Km is the substrate concentration at which the rate is half of its maximum. Turning to `O=[N+]([O-])c1ccc(O[C@@H]2O[C@H](CO)[C@@H](O)[C@H](O)[C@H]2O)cc1` [p-nitrophenyl-β-D-glucopyranoside], the Km with TrBG2 was 0.31 mM; in the test with TrBG3, 5.9 mM; in the test on TrBG1, 9.8 mM; in the test on TrBG5, 1.4 mM.
